In patent US20150065494A1, “AMINOSTYRYLBENZOFURAN DERIVATIVES AS INHIBITORS AGAINST BETA-AMYLOID FIBRIL FORMATION, AND PHARMACEUTICAL COMPOSITION COMPRISING SAME” (KOREA INSTITUTE OF SCIENCE AND TECHNOLOGY, priority 2012, published 2015):
Counter-ions that a name gives are not always drawn.

Key:
[1] = biological target: T1, beta-amyloid 42 (Aβ42) (Homo sapiens, UniProt P05067); assay: Inhibitory effect on the formation of beta-amyloid fibrils in vitro (ThT fluorescence assay); assay type: biochemical; details: for inhibition at 10 µM / % Inhibition (10 μM): 10 μM compound, 25 μM Aβ42, ThT fluorescence; for Aβ42 % inhibition compared with comparative compound curcumin: 10 μM
T1 construct: Beta-amyloid 42 (Aβ42) was dissolved in dimethylsulfoxide (DMSO) to form a 250 mM Aβ42 stock solution
Experimental: Beta-amyloid 42 (Aβ42) was dissolved in dimethylsulfoxide (DMSO) to form a […] Aβ42 stock solution. In addition, ThT (thioflavin T) was dissolved in distilled water to obtain a concentration of 1 mM and subsequently diluted with 50 mM glycin buffer (pH 8.5) to yield a 5 μM ThT stock solution. 45 μL of PBS (phosphate buffer saline, pH 7.4) was added to each of a 96-well fluorescence microplate (white, F-bottom). 5 μL of the 250 μM Aβ42 stock solution was added to each well. The final concentration of each compound obtained in Examples was in a range of 10 to 0.001 μM by adding 2 μL of a solution, which was prepared by dissolving the subject compounds obtained in Examples in DMSO, to each well. At this time, the final concentration of Aβ42 in each well was 25 μM. The plate was then incubated for 1 hr at room temperature, and 150 μL of the 5 μM ThT stock solution was added to each well.
The fluorescence intensity of each well was determined with the multi-label fluorescence counter (LS-55 Luminescence spectrometer: Perkin Elmer) at an excitation wavelength of 450 nm (excitation slit width: 10 nm) and an emission wavelength of 482 nm (emission slit width: 10 nm), while adjusting counting time to 1 second. The control group was prepared by adding PBS solution, Aβ42 and DMSO, without adding the inventive compound prepared above. A percent inhibition on the formation of beta-amyloid fibrils was calculated in accordance with the following equation, and IC50 was calculated by using GraphPad Prism version 4.03 Program.
% Inhibition=[1−(C−D)/(A−B)]×100
A (control group)=fluorescence intensity in a group treated with PBS solution, Aβ42 and DMSO
B (blank)=fluorescence intensity in a group treated with PBS solution and DMSO
C (experimental group)=fluorescence intensity in a group treated with PBS solution, Aβ42, the inventive compound and DMSO
D (compensation value to the experimental group) =fluorescence intensity in a group treated with PBS solution, the inventive compound and DMSO

[2] = Passage test through the blood-brain barrier (brain tissue concentration); assay type: in vivo, ICR mice and SD rats; details: brain; read-out: passage ability compared with plasma (blood-brain barrier)
Experimental: Three 7 week-old ICR mice (weight: approximately 30 g) and three 8 week-old SD rats (weight: approximately 250 g) were used per test group. A solution prepared by dissolving a hydrochloride salt of the compound of Example 3 in excipient (DMSO/Tween 20/saline: 0.1/0.6/2.3, v/v/v) was administered to each experimental animal. The test compound was intravenously administered in an amount of 5 mL per kg of body weight through the fine vein or orally administered in an amount of 10 mL per kg of body weight.
At 0.5, 1, 2, 4, 10 and 24 hrs after the administration of the test compound, the mice and rats were subjected to insufflations narcosis using isoflorane, followed by cutting the abdomen open. Subsequently, 1 mL of blood was collected from abdominal veins into the tube containing heparin (1000 IU/mL, 3 μL). The obtained blood samples were centrifuged for 2 min at 12,000 rpm to obtain plasma. The obtained plasmas were kept in a freezer at −80° C. until the analysis.
The mice and rats from which the blood samples were obtained were subjected to bloodletting, and then, the brain tissues of the mice and rats was collected. The brain tissue thus obtained was washed with physiological saline 1 or 2 times to remove blood. The weight of the brain tissue was measured after the removal of adipose tissue and peripheral tissue. 4% bovine serum albumin (BSA) solution diluted with 10-fold was added to the brain tissue. The resulting solution was subjected to homogenization using a homogenizer. The diluted homogenate thus obtained was placed in 2 mL tube and was kept in a freezer at −80° C. until the analysis. All of the treatments to the sample were performed in ice.
(§1) 50 μL of plasma was placed in a 2.0 mL tube with a cap (Eppendorf Co.). An internal standard solution and 1 mL of ethyl acetate as an extract solvent were added to the resulting solution. The resulting solution was mixed by using thermomixer (Eppendorf Co.) for 5 min at 1400 rpm, and then subjected to centrifugation (Eppendorf Co.). The supernatant was collected and concentrated at 35° C. by using a cyclone. The residue was re-dissolved in 50 μL of mobile phase and 5 μL of the resulting solution was injected into LC/MS and analyzed.
In Table 3, “iv” refers to intravenous injection; “po” refers to per oral; “AUC plasma” refers to an area under the plasma level-time curve; “Cmax” refers to a maximum plasma concentration; “Tmax” refers to a time to reach Cmax; “BA” refers to bioavailability (%) according to Equation 2 below; “AUC Brain” refers to an area under the brain tissue level-time curve; and “AUCBrain/AUCPlasma” refers to a passage rate of the test compound to the brain.

[3] = Pharmacokinetics test in mice (dose-dependent); assay type: in vivo, ICR mice; details: for AUC ratio / Cmax ratio / AUC / Cmax / Tmax / half-life: po; for AUC / Cmax / Tmax / half-life: ICR, mouse, plasma
Experimental: Two 6 week-old ICR mice (weight: approximately 25 g) were used per test group. A solution prepared by dissolving the compound of Example 3 in distilled water was administered to each experimental animal. The test compound was orally administered in an amount of 10 mL per kg of body weight.
At 0.5, 1, 2, 4, 10 and 24 hrs after the oral administration of the test compound, the blood was collected from jugular veins into a tube containing heparin (1,000 IU/mL, 3 μL). The obtained plasmas were centrifuged (12,000 rpm, 2 min, Eppendorf), and contained in a freezer at −80° C. until analysis.
as §1, with “cap (Eppendorf Co.) and acidified by adding 20 μL of 0.1% formic acid thereto. An internal” for “cap (Eppendorf Co.). An internal”
In Table 4, “po” refers to per oral; “AUC plasma” refers to an area under the plasma level-time curve; “Cmax” refers to a maximum plasma concentration; and “Tmax” refers to a time to reach Cmax.

T1 sequence (P05067 672-713 limits assumed): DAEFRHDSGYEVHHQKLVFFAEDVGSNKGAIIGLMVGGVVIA

## COc1cc(/C=C/C(=O)CC(=O)/C=C/c2ccc(O)c(OC)c2)ccc1O [Curcumin, curcumin, reference compound]
[1]
  inhibition at 10 µM: ≥ 70%

## CN(C)CCCOc1ccc2cc(/C=C/c3ccc(N(C)C)cc3)oc2c1 [Example 3, (E)-6-(3-dimethylaminopropoxy)-2-(4-dimethylaminostyryl)benzofuran]
[2]
  Kp: ≥ 1
[3]; 10 mg/kg, relative to AUC at 10 mg/kg
  AUC ratio: 1.0
[3]; 10 mg/kg, relative to AUC at 10 mg/kg, listed as Compound of Example 3, 10 mg/kg
  AUC ratio: 1
[3]; 10 mg/kg, relative to Cmax at 10 mg/kg
  Cmax ratio: 1
[3]; 30 mg/kg, AUC (30 mg/kg)/AUC (10 mg/kg)
  AUC ratio: 4.2
[3]; 30 mg/kg, Cmax (30 mg/kg)/Cmax (10 mg/kg)
  Cmax ratio: 4.7
[3]; 100 mg/kg, AUC (100 mg/kg)/AUC (10 mg/kg)
  AUC ratio: 10.4
[3]; 100 mg/kg, Cmax (100 mg/kg)/Cmax (10 mg/kg)
  Cmax ratio: 9.4
[3]; 10 mg/kg
  AUC: 443 ng·h/mL
  Cmax: 40.4 ng/mL
  Tmax: 0.5 h
  half-life: 4.9 h
[3]; 30 mg/kg
  AUC: 1890 ng·h/mL
  Cmax: 188 ng/mL
  Tmax: 2 h
  half-life: 5.4 h
[3]; 100 mg/kg
  AUC: 4580 ng·h/mL
  Cmax: 378 ng/mL
  Tmax: 4 h
  half-life: 23.5 h
[3]; oral 10, 30 and 100 mg/kg
  dose-dependence of pharmacokinetics (linearity): linear pharmacokinetics

## CN(C)c1ccc(/C=C/c2cc3ccc(OCCCN4CCCCC4)cc3o2)cc1 [Example 11, (E)-6-(3-(1-piperidinyl)propoxy)-2-(4-dimethylaminostyryl)benzofuran]
[1]
  inhibition at 10 µM: < 50%

## CN(C)c1ccc(/C=C/c2cc3ccc(OCCCc4ccncc4)cc3o2)cc1 [Example 17, (E)-6-(3-(4-pyridinyl)propoxy)-2-(4-dimethylaminostyryl)benzofuran]
[1]
  inhibition at 10 µM: < 50%

## COc1ccc2cc(/C=C/c3ccc(N(C)CCF)cc3)oc2c1 [Example 20, (E)-6-(methoxy)-2-(4,4′-methyl(2-fluoroethyl)aminostyryl)benzofuran]
[1]
  Aβ42 % inhibition compared with comparative compound curcumin: equal to or greater than that of the comparative compound, curcumin
  inhibition at 10 µM: ≥ 70%

## CN(C)c1ccc(/C=C/c2cc3ccc(OCCN4CCOC4)cc3o2)cc1 [Example 21, (E)-6-(2-(3-oxazolidinyl)ethoxy)-2-(4-dimethylaminostyryl)benzofuran hydrochloride]
[1]
  inhibition at 10 µM: 50 to 70%

## CCN(CC)CCCOc1ccc2cc(/C=C/c3ccc(N(C)C)cc3)oc2c1 [Example 24, (E)-6-(3-diethylaminopropoxy)-2-(4-dimethylaminostyryl)benzofuran hydrochloride]
[1]
  inhibition at 10 µM: 50 to 70%

## CN(C)c1ccc(/C=C/c2cc3ccc(OCCCN4CCOCC4)cc3o2)cc1.Cl [Example 25, (E)-6-(3-(4-morpholinopropoxy))-2-(4-dimethylaminostyryl)benzofuran hydrochloride]
[1]
  Aβ42 % inhibition compared with comparative compound curcumin: equal to or greater than that of the comparative compound, curcumin
  % Inhibition (10 μM): *** (*** (70%≦))

## CN(C)c1ccc(/C=C/c2cc3ccc(OCCN4CCOCC4)cc3o2)cc1.Cl [Example 27, (E)-6-(2-(4-morpholinoethoxy))-2-(4-dimethylaminostyryl)benzofuran hydrochloride]
[1]
  % Inhibition (10 μM): ** (** (50% ≦ × < 70%))

## C[C@@H]1CN(CCCOc2ccc3cc(/C=C/c4ccc(N(C)C)cc4)oc3c2)C[C@H](C)O1 [Example 28, (E)-6-(3-((2S,6R)-2,6-dimethylmorpholino)propoxy)-2-(4-dimethylaminostyryl)benzofuran hydrochloride]
[1]
  inhibition at 10 µM: < 50%

## CN(C)c1ccc(/C=C/c2cc3ccc(OCCN4CCCCC4)cc3o2)cc1.Cl [Example 29]
[1]
  % Inhibition (10 μM): * (* (<50%))

## CN(C)c1ccc(/C=C/c2cc3ccc(OCC4CCCCN4C)cc3o2)cc1 (stereo not shown) [Example 31, (E)-6-(1-methyl-2-piperidinylmethoxy)-2-(4-dimethylaminostyryl)benzofuran hydrochloride]
[1]
  inhibition at 10 µM: < 50%

## CN1CCCC(COc2ccc3cc(/C=C/c4ccc(N(C)C)cc4)oc3c2)C1 (stereo not shown) [Example 32, (E)-6-(1-methyl-3-piperidinylmethoxy)-2-(4-dimethylaminostyryl)benzofuran hydrochloride]
[1]
  inhibition at 10 µM: < 50%

## CN1CCN(CCCOc2ccc3cc(/C=C/c4ccc(N(C)C)cc4)oc3c2)CC1 [Example 33, (E)-6-(3-(4-methyl-1-piperazinyl)propoxy)-2-(4-dimethylaminostyryl)benzofuran hydrochloride]
[1]
  inhibition at 10 µM: < 50%

## CN(C)c1ccc(/C=C/c2cc3ccc(OCCCN4CCSCC4)cc3o2)cc1.Cl [Example 34, (E)-6-(3-(4-thiomorpholinopropoxy))-2-(4-dimethylaminostyryl)benzofuran hydrochloride]
[1]
  % Inhibition (10 μM): * (* (<50%))

## CN(C)c1ccc(/C=C/c2cc3ccc(OCCCN4CCS(=O)(=O)CC4)cc3o2)cc1.Cl [Example 35, (E)-6-(3-(thiomorpholine-1,1-dioxide)propoxy)-2-(4-dimethylaminostyryl)benzofuran hydrochloride]
[1]
  % Inhibition (10 μM): * (* (<50%))

## CN(C)c1ccc(/C=C/c2cc3ccc(OCCCc4ccccn4)cc3o2)cc1 [Example 37, (E)-6-(3-(2-pyridinyl)propoxy)-2-(4-dimethylaminostyryl)benzofuran hydrochloride]
[1]
  inhibition at 10 µM: < 50%

## CN(C)c1ccc(/C=C/c2cc3ccc(OCCCc4cccnc4)cc3o2)cc1 [Example 38, (E)-6-(3-(3-pyridinyl)propoxy)-2-(4-dimethylaminostyryl)benzofuran hydrochloride]
[1]
  inhibition at 10 µM: < 50%
